In patent US11155557B2, “Pyrazolopyrimidine compounds and methods of use thereof” (Genentech, Inc., priority 2016, dated 2021):

Legend:
[1] = target: isolated recombinant JAK2 kinase domain (Homo sapiens (Human), UniProt O60674); assay: JAK2 enzyme assay (Caliper LabChip, Ki); settings: read-out: JAK2 Ki
[2] = target: isolated recombinant JAK1 kinase domain (Homo sapiens (Human), UniProt P23458); assay: JAK1 enzyme assay (Caliper LabChip, Ki); type: biochemical
Protocol: The activity of the isolated recombinant JAK1 and JAK2 kinase domain was measured by monitoring phosphorylation of a peptide derived from JAK3 ([…] fluorescently labeled on the N-terminus with 5-carboxyfluorescein) using the Caliper LabChip R technology (Caliper Life Sciences, Hopkinton, Mass.).

[3] = tested on: JAK1-dependent STAT6 phosphorylation in BEAS-2B human bronchial epithelial cells; assay: JAK1 pathway assay: IL-13 stimulated STAT6 phosphorylation in BEAS-2B cells; type: cell-based; settings: Homo sapiens, BEAS-2B, BEAS-2B cells, IL-13 stimulation; read-out: IL-13 p-STAT6 BEAS-2B IC50
In short: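 BEAS-2B bronchial epithelial cells plated one day before, run in complete growth medium. Phospho-STAT6 in lysates measured by MesoScale Discovery; EC50 reported.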

Chain of isolated recombinant JAK2 kinase domain (O60674 849-1124): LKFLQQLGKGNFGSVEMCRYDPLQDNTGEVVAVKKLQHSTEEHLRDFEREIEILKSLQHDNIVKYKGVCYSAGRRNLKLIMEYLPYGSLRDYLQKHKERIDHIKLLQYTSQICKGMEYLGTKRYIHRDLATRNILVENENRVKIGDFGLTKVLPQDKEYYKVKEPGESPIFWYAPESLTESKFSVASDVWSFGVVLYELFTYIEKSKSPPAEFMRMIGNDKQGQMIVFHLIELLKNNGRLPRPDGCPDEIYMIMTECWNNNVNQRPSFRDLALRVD
Chain of isolated recombinant JAK1 kinase domain (P23458 875-1153): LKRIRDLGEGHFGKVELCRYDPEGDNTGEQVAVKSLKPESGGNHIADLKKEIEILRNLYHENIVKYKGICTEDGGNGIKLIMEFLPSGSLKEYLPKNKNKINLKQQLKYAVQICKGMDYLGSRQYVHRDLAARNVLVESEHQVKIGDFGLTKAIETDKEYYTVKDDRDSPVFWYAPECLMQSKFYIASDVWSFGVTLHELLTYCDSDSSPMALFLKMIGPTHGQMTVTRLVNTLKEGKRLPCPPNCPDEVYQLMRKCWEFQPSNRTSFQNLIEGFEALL

Row | SMILES | Ki [1] [nM] | Ki [2] [nM] | IC50 [3] [nM]
1 | CN(C)CCn1cc(NC(=O)c2cnn3cccnc23)c(-c2cc3c(cc2OC(F)F)NC(=O)CS3)n1 [Example 83, N-[3-[6-(difluoromethoxy)-3-oxo-4H-1,4-benzothiazin-7-yl]-1-[2-(dimethylamino)ethyl]pyrazol-4-yl]pyrazolo[1,5-a]pyrimidine-3-carboxamide] | 0.14 | 0.23 | 14
2 | O=C(Nc1cn(C2COC2)nc1-c1cc2c(cc1OC(F)F)NCCO2)c1cnn2cccnc12 [Example 84, N-[3-[6-(difluoromethoxy)-3,4-dihydro-2H-1,4-benzoxazin-7-yl]-1-(oxetan-3-yl)pyrazol-4-yl]pyrazolo[1,5-a]pyrimidine-3-carboxamide] | 0.12 | 0.19 | 8
3 | O=C(Nc1cn(CCN2CCOCC2)nc1-c1cc2ccccc2cc1OC(F)F)c1cnn2cccnc12 [Example 85, N-[3-[3-(difluoromethoxy)-2-naphthyl]-1-(2-morpholinoethyl)pyrazol-4-yl]pyrazolo[1,5-a]pyrimidine-3-carboxamide] | 1.69 | 1.32 | 34
4 | CCn1cc(NC(=O)c2cnn3cccnc23)c(-c2cc3ccccc3cc2OC(F)F)n1 [Example 87, N-[3-[3-(difluoromethoxy)-2-naphthyl]-1-ethyl-pyrazol-4-yl]pyrazolo[1,5-a]pyrimidine-3-carboxamide] | 0.42 | 0.62 | 15
5 | Cn1cc(NC(=O)c2cnn3cccnc23)c(-c2cc3c(cc2OC(F)F)NCCS3)n1 [Example 88, N-[3-[6-(difluoromethoxy)-3,4-dihydro-2H-1,4-benzothiazin-7-yl]-1-methyl-pyrazol-4-yl]pyrazolo[1,5-a]pyrimidine-3-carboxamide] | 0.1 | 0.08 | 5

More lines, in order of falling Ki [1], values ahead:

Row | Ki [1] [nM] | Ki [2] [nM] | SMILES | IC50 [3] [nM]
6 | 1.02 | 1.53 | CN1CCC(Cn2cc(NC(=O)c3cnn4cccnc34)c(-c3cc4ccccc4cc3OC(F)F)n2)CC1 [Example 86, N-[3-[3-(difluoromethoxy)-2-naphthyl]-1-[(1-methyl-4-piperidyl)methyl]pyrazol-4-yl]pyrazolo[1,5-a]pyrimidine-3-carboxamide] | 31
7 | 0.16 | 0.23 | CN(C)CCn1cc(NC(=O)c2cnn3cccnc23)c(-c2cc3c(cc2OC(F)F)NCCS3)n1 [Example 82, N-[3-[6-(difluoromethoxy)-3,4-dihydro-2H-1,4-benzothiazin-7-yl]-1-[2-(dimethylamino)ethyl]pyrazol-4-yl]pyrazolo[1,5-a]pyrimidine-3-carboxamide] | 7
8 | 0.13 | 0.18 | CNCCn1cc(NC(=O)c2cnn3cccnc23)c(-c2cc3c(cc2OC(F)F)NC(=O)CS3)n1 [Example 79, N-[3-[6-(difluoromethoxy)-3-oxo-4H-1,4-benzothiazin-7-yl]-1-[2-(methylamino)ethyl]pyrazol-4-yl]pyrazolo[1,5-a]pyrimidine-3-carboxamide] | 97
9 | 0.11 | 0.12 | CNCCn1cc(NC(=O)c2cnn3cccnc23)c(-c2cc3c(cc2OC(F)F)NCCS3)n1 [Example 81, N-[3-[6-(difluoromethoxy)-3,4-dihydro-2H-1,4-benzothiazin-7-yl]-1-[2-(methylamino)ethyl]pyrazol-4-yl]pyrazolo[1,5-a]pyrimidine-3-carboxamide] | 7
10 | 0.1 | 0.12 | Cn1cc(NC(=O)c2cnn3cccnc23)c(-c2cc3c(cc2OC(F)F)NCCO3)n1 [Example 89, N-[3-[6-(difluoromethoxy)-3,4-dihydro-2H-1,4-benzoxazin-7-yl]-1-methyl-pyrazol-4-yl]pyrazolo[1,5-a]pyrimidine-3-carboxamide] | 7
11 | 0.07 | 0.07 | Cn1cc(NC(=O)c2cnn3cccnc23)c(-c2cc3c(cc2OC(F)F)NC(=O)CS3)n1 [Example 90, N-[3-[6-(difluoromethoxy)-3-oxo-4H-1,4-benzothiazin-7-yl]-1-methyl-pyrazol-4-yl]pyrazolo[1,5-a]pyrimidine-3-carboxamide] | 5
